According to patent publication US10913772B2, “Peptide for preventing or treating inflammatory diseases and use thereof” (KINE SCIENCES Co., Ltd., priority 2016, dated 2021):
Where “and” joins values, the source holds several entries; their conditions need not be identical. Equal values may be shown once. No end group written: not given here.

Tests used:
[1] = test system: collagen-induced arthritis (CIA) mouse model; assay: Arthritis progression index in collagen-induced arthritis mouse model; assay type: in vivo, mouse (DBA/1J); design: key: 0-4 per leg, summed over four legs (0-16), mean of two observers; details: Table 3, methotrexate 1 mg/kg
Protocol: In Example 2, using a collagen-induced arthritis mouse model in the following document, a therapeutic effect of a RGD dimer for a representative inflammatory disease, rheumatoid arthritis was confirmed (Nat Protoc. 2007; 2(5):1269-75.).
A collagen-induced arthritis (CIA) mouse model was prepared as follows, as an autoimmune disease-based arthritis model with characteristics similar to human rheumatoid arthritis.
First, a bovine type II collagen (Chondrex Corporation, USA) and a Freund's complete adjuvant (Chondrex Corporation, USA) were mixed at a ratio of 1:1 and emulsified, and then 50 μl of the emulsified collagen solution was injected intradermally into the tail of a 6-week-old DBA/1J mouse to induce primary immunization. At two weeks after the primary immunization, the bovine type II collagen and the Freund's complete adjuvant were mixed at a ratio of 1:1 and emulsified, and then 50 μl of the emulsified collagen solution was injected intradermally into the tail of the mouse again to induce secondary immunization (boosting).
After the secondary immunization, from the next day, the peptide of the present invention ([…] (1 μmole)) was administered intraperitoneally three times a week and a PBS-treated group was used as a control (Vehicle control). The preparation process of the collagen-induced arthritis mouse model and the administration time of the peptide were schematically illustrated in FIG. 1.
In order to investigate the development of arthritis progression according to the peptide treatment of the present invention, the deepening degree of arthritis with time was measured by evaluating an arthritis progression index. Two observers who were unaware of the specific experimental conditions evaluated progression of arthritis three times a week. In this case, the arthritis progression index was evaluated by 0 to 4 scores per leg according to an arthritis progression evaluation standard by Rossoliniec and the like in Table 1 below to be represented by a total of 0 to 16 scores (a sum of four legs), and thereafter, two observers calculated an average value of the evaluated results to digitize the severity of arthritis.
In order to confirm the efficacy for each treatment concentration of the peptide according to the present invention, by using the same method as Example 2-2, an arthritis therapeutic effect according to the peptide treatment at various concentrations (0.1 μmole, 1 μmole, and 10 μmole) was evaluated by the arthritis progression index.
Methotrexate (MTX), one of drugs which are used as arthritis therapeutic agents in a current clinical practice, had excellent anti-inflammatory and arthritis therapeutic effects as an immunodepressant, but may have side effects such as toxicity to normal cells, oral ulcer, alopecia, interstitial pneumonia, bone marrow suppression, and the like. As a result, the methotrexate is known as a drug that needs to pay close attention after medication with sufficient medication counseling. As a result, the arthritis therapeutic effect according to the peptide treatment at various concentrations was compared with that of the case of treating methotrexate (1 mg/kg).

[2] = Evaluation of toxicity: mortality and change in body weight of mouse; assay type: in vivo; details: for Body weight: i.p., individual mice
Protocol: In Example 3, in order to confirm the toxicity of the peptide of the present invention, the RGD dimer was intraperitoneally administered to mouse at various concentrations (0.1 μmole, 1 μmole, and 10 μmole), and then the mortality and a change in body weight of each mouse were measured. On the other hand, as a control, a non-administration group (Normal) and a PBS-treated group (PBS) were used.

Which results are given for `CN(Cc1cnc2nc(N)nc(N)c2n1)c1ccc(C(=O)N[C@@H](CCC(=O)O)C(=O)O)cc1` [MTX, methotrexate]?
arthritis progression index ([1]; day 20): 0.8; arthritis progression index ([1]; day 22): 0.8; arthritis progression index ([1]; day 24): 1.0; arthritis progression index ([1]; day 27): 1.2; arthritis progression index ([1]; day 29): 1.4; arthritis progression index ([1]; day 31): 1.8; arthritis progression index ([1]; day 34): 1.8; arthritis progression index ([1]; day 36): 3.2

What does the source list for RDGRDG [RDG dimer, RDGRDG]?
mortality of the mouse ([2]; 0.1 μmole, 1 μmole or 10 μmole, intraperitoneally): not observed; Body weight ([2]; 10 umole, day 17): 23.74 g and 20.75 g and 18.48 g; Body weight ([2]; 10 umole, day 21): 23.8 g and 21.9 g and 20.5 g; Body weight ([2]; 10 umole, day 24): 24.2 g and 22 g and 20.1 g; Body weight ([2]; 10 umole, day 27): 23.8 g and 21.6 g and 20.5 g; Body weight ([2]; 10 umole, day 31): 23.9 g and 22 g; Body weight ([2]; 10 umole, day 34): 24.8 g and 22.3 g; difference in body weight from the control ([2]; all the concentrations (0.1, 1 and 10 μmole), intraperitoneally): did not have a large difference; Body weight ([2]; first group printed 1 umole, day 17): 21.65 g and 24.51 g and 18.25 g and 21.88 g and 22.3 g and 21.96 g and 18.84 g; Body weight ([2]; first group printed 1 umole, day 21): 21.8 g and 24.5 g and 18.4 g and 21.5 g and 22 g (2×) and 19.6 g; Body weight ([2]; first group printed 1 umole, day 24): 21.8 g and 24.9 g and 18.2 g and 22.4 g and 22.8 g and 21.3 g and 20.6 g; Body weight ([2]; first group printed 1 umole, day 27): 22.2 g and 25 g and 18.1 g and 22.7 g and 22.9 g and 21.3 g and 20.5 g; Body weight ([2]; first group printed 1 umole, day 31): 22.4 g and 25.3 g and 18.8 g and 22.3 g and 22.6 g and 21.2 g and 20.7 g; Body weight ([2]; first group printed 1 umole, day 34): 23.1 g (2×) and 26.1 g and 19 g and 23 g and 22.6 g and 21.8 g; Body weight ([2]; second group printed 1 umole, day 17): 22.7 g (2×) and 21.3 g and 18.96 g and 20.63 g and 20.61 g and 21.07 g; Body weight ([2]; second group printed 1 umole, day 21): 22.3 g and 22.4 g and 19.6 g and 20.6 g and 21.1 g and 21.3 g and 22.6 g; Body weight ([2]; second group printed 1 umole, day 24): 23.9 g and 22.2 g and 20 g and 20.8 g and 21.4 g and 21.7 g and 23.2 g; Body weight ([2]; second group printed 1 umole, day 27): 24.4 g and 22.3 g and 20.1 g and 21.2 g and 21.3 g and 21.7 g and 23.3 g; Body weight ([2]; second group printed 1 umole, day 31): 22.6 g and 22.7 g and 20.2 g and 20.1 g and 21.3 g and 22.2 g and 23.4 g; Body weight ([2]; second group printed 1 umole, day 34): 23 g and 23.6 g and 20.5 g and 18.6 g and 20.6 g and 22.5 g and 24.2 g
